Values quoted from earlier work in patent publication US20100247552A1, “PAK MODULATORS” (MASSACHUSETTS INSTITUTE OF TECHNOLOGY, priority 2006, published 2010).

Assays:
[1] = system: human cancer cell migration; settings: 40 μM; interferes with formation of active Cdc42/Rac1 and PAK complex
[2] = solvents
PAK4 [3] = biological target: T1, PAK4 (Homo sapiens, UniProt O96013)
PAK5 [4] = biological target: T2, PAK5 (Homo sapiens, UniProt Q9P286)
PAK6 [5] = biological target: T3, PAK6 (Homo sapiens, UniProt Q9NQU5)
PAK4 [6] = biological target: T1, PAK4; settings: 10 μM compound
PAK5 [7] = biological target: T2, PAK5; settings: 10 μM compound
PAK6 [8] = biological target: T3, PAK6; settings: 10 μM compound
PAK = settings: probably competitive inhibition of ATP binding; units printed within the value (nM and μM); read-out: IC50 for inhibition of PAK kinase activity

T3 sequence (Q9NQU5 whole entry): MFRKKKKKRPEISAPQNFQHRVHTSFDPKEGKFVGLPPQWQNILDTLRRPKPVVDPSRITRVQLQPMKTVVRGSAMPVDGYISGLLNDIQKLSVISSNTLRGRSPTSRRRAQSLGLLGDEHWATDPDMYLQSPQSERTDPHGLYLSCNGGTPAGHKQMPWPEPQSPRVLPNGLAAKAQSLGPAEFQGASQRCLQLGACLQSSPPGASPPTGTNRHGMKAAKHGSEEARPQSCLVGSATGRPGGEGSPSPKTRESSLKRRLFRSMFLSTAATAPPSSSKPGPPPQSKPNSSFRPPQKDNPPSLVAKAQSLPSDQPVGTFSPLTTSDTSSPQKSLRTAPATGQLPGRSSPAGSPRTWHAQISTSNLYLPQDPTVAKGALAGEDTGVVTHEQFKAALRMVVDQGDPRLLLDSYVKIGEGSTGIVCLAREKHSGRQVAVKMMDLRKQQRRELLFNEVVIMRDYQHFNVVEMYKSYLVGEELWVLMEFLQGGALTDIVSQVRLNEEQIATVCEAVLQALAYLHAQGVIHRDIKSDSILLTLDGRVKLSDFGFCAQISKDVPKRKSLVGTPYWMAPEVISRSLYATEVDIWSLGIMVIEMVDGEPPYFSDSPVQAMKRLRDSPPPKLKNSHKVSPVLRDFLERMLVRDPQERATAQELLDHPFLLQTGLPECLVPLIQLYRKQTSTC
T2 sequence (Q9P286 whole entry): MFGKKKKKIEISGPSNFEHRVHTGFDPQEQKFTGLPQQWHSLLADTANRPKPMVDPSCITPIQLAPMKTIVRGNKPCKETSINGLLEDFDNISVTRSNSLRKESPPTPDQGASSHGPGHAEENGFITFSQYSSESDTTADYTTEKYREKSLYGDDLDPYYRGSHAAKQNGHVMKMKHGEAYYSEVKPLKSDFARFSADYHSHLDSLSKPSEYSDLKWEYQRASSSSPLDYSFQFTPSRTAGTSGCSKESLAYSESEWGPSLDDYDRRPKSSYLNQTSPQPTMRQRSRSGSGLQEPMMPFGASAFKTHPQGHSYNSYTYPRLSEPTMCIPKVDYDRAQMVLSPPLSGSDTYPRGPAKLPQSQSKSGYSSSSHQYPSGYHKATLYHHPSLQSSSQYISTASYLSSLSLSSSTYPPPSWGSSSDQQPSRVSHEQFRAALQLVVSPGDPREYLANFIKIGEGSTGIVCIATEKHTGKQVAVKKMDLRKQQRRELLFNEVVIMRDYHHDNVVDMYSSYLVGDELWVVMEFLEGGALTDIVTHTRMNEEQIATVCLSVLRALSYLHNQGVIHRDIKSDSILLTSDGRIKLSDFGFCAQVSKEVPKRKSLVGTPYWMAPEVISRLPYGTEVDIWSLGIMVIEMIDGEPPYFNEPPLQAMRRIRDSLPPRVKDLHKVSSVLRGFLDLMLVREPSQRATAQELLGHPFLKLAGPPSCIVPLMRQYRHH
T1 sequence (O96013 291-591 limits assumed): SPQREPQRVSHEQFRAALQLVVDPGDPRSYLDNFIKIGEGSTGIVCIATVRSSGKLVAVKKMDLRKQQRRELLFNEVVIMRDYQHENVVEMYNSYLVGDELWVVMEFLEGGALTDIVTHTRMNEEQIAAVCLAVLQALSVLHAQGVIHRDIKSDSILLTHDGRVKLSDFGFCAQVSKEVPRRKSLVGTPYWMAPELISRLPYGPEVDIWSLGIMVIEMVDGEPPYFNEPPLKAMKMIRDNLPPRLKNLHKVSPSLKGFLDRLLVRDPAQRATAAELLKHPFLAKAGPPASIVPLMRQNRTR

Row | Compound | Effect on human cancer cell migration [1] | Solubility [2] | Tm Shift PAK4 (PAK4 [3]) [°C] | Tm Shift PAK5 (PAK5 [4]) [°C] | Tm Shift PAK6 (PAK6 [5]) [°C] | % Activity at 10 μM PAK4 (PAK4 [6]) [%] | % Activity at 10 μM PAK5 (PAK5 [7]) [%] | % Activity at 10 μM PAK6 (PAK6 [8]) [%] | IC50 (PAK) [nM]
1 | Cc1cc(O)c2c(c1)C(=O)c1cc(O)cc(O)c1C2=O [Emodin, 1,3,8-Tri-hydroxy-6-methyl-anthra-quinone] | inhibits human cancer cell migration | soluble in DMSO, ethanol, or 1 N dilute aqueous ammonia | – | – | – | – | – | – | –
2 | C[C@]12OC(C[C@]1(O)C(=O)O)n1c3ccccc3c3c4c(c5c6ccccc6n2c5c31)CNC4=O [K252a] | – | – | 4.5 ± 0.3 | 5.9 ± 0.3 | 8.6 ± 1.0 | 16 | 22 | 16 | –
3 | Nc1nc(Nc2ccc(S(N)(=O)=O)cc2)nn1C(=S)Nc1c(F)cccc1F [Cdk 1/2 Inhibitor III] | – | – | 6.5 ± 0.2 | 5.6 ± 0.3 | 5.6 ± 0.8 | 62 | 7.0 | 18 | –
4 | NCC(=O)Nc1ccc(-n2nc(C(F)(F)F)cc2-c2ccc3c(ccc4ccccc43)c2)cc1 [OSU-03012, 2-amino-N-{4-[5-(2-phenanthrenyl)-3-(trifluoromethyl)-1H-pyrazol-1-yl]-phenyl}acetamide] | – | soluble in organic solvents such as DMSO, ethanol, and DMF | – | – | – | – | – | – | 500 to 1000
5 | CCn1cnc2c(Nc3cccc(Cl)c3)nc(NC3CCCCC3N)nc21 (stereo not drawn) [Cdkl Inhibitor] | – | – | 7.0 ± 1.5 | 7.1 ± 0.3 | 7.0 ± 0.3 | 56 | 12 | 23 | –
6 | CCN(CC)CCNC(=O)c1c(C)[nH]c(/C=C2\C(=O)Nc3ccc(Cl)cc32)c1C [SU11652] | – | – | 6.4 ± 1.2 | 5.3 ± 0.2 | 5.3 ± 0.3 | 34 | 43 | 75 | –
7 | CN[C@@H]1C[C@H]2O[C@@](C)([C@@H]1OC)n1c3ccccc3c3c4c(c5c6ccccc6n2c5c31)C(=O)NC4 [Staurosporine] | – | – | – | – | – | – | 0 | 0 | –
